Reference: ChEMBL document CHEMBL5715952 (Oncotarget, 2015)
Calls of active or inactive are those of the source. No cut-off for these calls is given here.

How the values were obtained:
[1] = target: T1, Bromodomain and extra-terminal motif (BET) (Homo sapiens) (UniProt P25440+O60885+Q58F21+Q15059); conditions: Bortezomib-resistant ANBL6 cell, dose lower 40.0 nM, dose upper […]
ANBL-6 [2] = experiment: Synergistic apoptosis activity in wild-type human ANBL-6 cells assessed as early apoptosis at 1600 nM incubated for 24 hrs in the presence of BTZ by annexin V and 7-AAD staining by flow cytometry analysis; type: functional
[3] = target: T1, Bromodomain and extra-terminal motif (BET) (Homo sapiens); conditions: Bortezomib-resistant ANBL6 cell, dose lower 40.0 nM, dose upper […]; remark: listed apart in the source
RPMI-8226 [4] = experiment: Synergistic antiproliferative activity against wild-type human RPMI-8226 cells assessed as reduction in cell viability at ED50 incubated for 72 hrs in presence of bortezomib by MTS assay; type: functional
[5] = system: Bortezomib-resistant ANBL6; experiment: Induction of apoptosis in human bortezomib-resistant ANBL6 cells assessed as late apoptosis at 160 nM incubated for 72 hrs by annexin V and 7-AAD staining by flow cytometry analysis (Rvb=5 %); type: functional
[6] = Synergistic antiproliferative activity against human melphalan-resistant RPMI-8226 cells assessed as reduction in cell viability at ED75 incubated for 72 hrs in presence of bortezomib by MTS assay; type: functional, Melphalan-resistant RPMI-8226 cell
[7] = system: Bortezomib-resistant ANBL6; experiment: Synergistic antiproliferative activity against human bortezomib-resistant ANBL6 cells assessed as reduction in cell viability at ED75 incubated for 72 hrs in presence of bortezomib by MTS assay; type: functional
ANBL-6 [8] = experiment: Synergistic apoptosis activity in wild-type human ANBL-6 cells assessed as early apoptosis at 1600 nM incubated for 72 hrs in the presence of BTZ by annexin V and 7-AAD staining by flow cytometry analysis (Rvb=14 %); type: functional
ANBL-6 [9] = experiment: Synergistic antiproliferative activity against wild-type human ANBL-6 cells assessed as reduction in cell viability at ED50 incubated for 72 hrs in presence of bortezomib by MTS assay; type: functional
[10] = system: Bortezomib-resistant ANBL6; experiment: Synergistic apoptosis activity in human bortezomib-resistant ANBL6 cells assessed as early apoptosis at 1600 nM incubated for 48 hrs in the presence of BTZ by annexin V and 7-AAD staining by flow cytometry analysis; type: functional
[11] = system: Bortezomib-resistant ANBL6; experiment: Induction of apoptosis in human bortezomib-resistant ANBL6 cells assessed as early apoptosis at 160 nM incubated for 72 hrs by annexin V and 7-AAD staining by flow cytometry analysis (Rvb=15 %); type: functional
[12] = system: Bortezomib-resistant ANBL6; experiment: Synergistic antiproliferative activity against human bortezomib-resistant ANBL6 cells assessed as reduction in cell viability at ED90 incubated for 72 hrs in presence of bortezomib by MTS assay; type: functional
ANBL-6 [13] = experiment: Induction of apoptosis in wild-type human ANBL-6 cells assessed as viable at 40 nM incubated for 72 hrs by annexin V and 7-AAD staining by flow cytometry analysis (Rvb=59 %); type: functional
ANBL-6 [14] = experiment: Synergistic antiproliferative activity against wild-type human ANBL-6 cells assessed as reduction in cell viability at ED90 incubated for 72 hrs in presence of bortezomib by MTS assay; type: functional
[15] = target: T1, Bromodomain and extra-terminal motif (BET) (Homo sapiens); conditions: Bortezomib-resistant ANBL6 cell, dose lower 40.0 nM, dose upper […]; remark: listed apart in the source
[16] = target: T1, Bromodomain and extra-terminal motif (BET) (Homo sapiens); conditions: ANBL-6, dose lower 40.0 nM, dose upper […]
ANBL-6 [17] = experiment: Synergistic antiproliferative activity against wild-type human ANBL-6 cells assessed as reduction in cell viability at ED75 incubated for 72 hrs in presence of bortezomib by MTS assay; type: functional
[18] = system: Bortezomib-resistant ANBL6; experiment: Synergistic apoptosis activity in human bortezomib-resistant ANBL6 cells assessed as late apoptosis at 1600 nM incubated for 72 hrs in the presence of BTZ by annexin V and 7-AAD staining by flow cytometry analysis (Rvb=5 %); type: functional
[19] = target: T1, Bromodomain and extra-terminal motif (BET) (Homo sapiens); conditions: ANBL-6, dose lower 40.0 nM, dose upper […]; remark: listed apart in the source
ANBL-6 [20] = experiment: Induction of apoptosis in wild-type human ANBL-6 cells assessed as late apoptosis at 1600 nM incubated for 72 hrs by annexin V and 7-AAD staining by flow cytometry analysis (Rvb=26 %); type: functional
[21] = system: Bortezomib-resistant ANBL6; experiment: Induction of apoptosis in human bortezomib-resistant ANBL6 cells assessed as late apoptosis at 1600 nM incubated for 72 hrs by annexin V and 7-AAD staining by flow cytometry analysis (Rvb=5 %); type: functional
[22] = system: Bortezomib-resistant ANBL6; experiment: Synergistic apoptosis activity in human bortezomib-resistant ANBL6 cells assessed as early apoptosis at 1600 nM incubated for 72 hrs in the presence of BTZ by annexin V and 7-AAD staining by flow cytometry analysis; type: functional
[23] = Synergistic antiproliferative activity against human melphalan-resistant RPMI-8226 cells assessed as reduction in cell viability at ED50 incubated for 72 hrs in presence of bortezomib by MTS assay; type: functional, Melphalan-resistant RPMI-8226 cell
ANBL-6 [24] = experiment: Induction of apoptosis in wild-type human ANBL-6 cells assessed as late apoptosis at 40 nM incubated for 72 hrs by annexin V and 7-AAD staining by flow cytometry analysis (Rvb=26 %); type: functional
RPMI-8226 [25] = experiment: Synergistic antiproliferative activity against wild-type human RPMI-8226 cells assessed as reduction in cell viability at ED90 incubated for 72 hrs in presence of bortezomib by MTS assay; type: functional
ANBL-6 [26] = experiment: Synergistic apoptosis activity in wild-type human ANBL-6 cells assessed as viable at 1600 nM incubated for 72 hrs in the presence of BTZ by annexin V and 7-AAD staining by flow cytometry analysis (Rvb=59 %); type: functional
ANBL-6 [27] = experiment: Synergistic apoptosis activity in wild-type human ANBL-6 cells assessed as late apoptosis at 1600 nM incubated for 72 hrs in the presence of BTZ by annexin V and 7-AAD staining by flow cytometry analysis (Rvb=26 %); type: functional
[28] = system: Bortezomib-resistant ANBL6; experiment: Synergistic apoptosis activity in human bortezomib-resistant ANBL6 cells assessed as viable at 1600 nM incubated for 72 hrs in the presence of BTZ by annexin V and 7-AAD staining by flow cytometry analysis (Rvb=80 %); type: functional
ANBL-6 [29] = experiment: Induction of apoptosis in wild-type human ANBL-6 cells assessed as early apoptosis at 40 nM incubated for 72 hrs by annexin V and 7-AAD staining by flow cytometry analysis (Rvb=14 %); type: functional
ANBL-6 [30] = experiment: Synergistic apoptosis activity in wild-type human ANBL-6 cells assessed as early apoptosis at 1600 nM incubated for 72 hrs in the presence of BTZ by annexin V and 7-AAD staining by flow cytometry analysis; type: functional
[31] = system: Bortezomib-resistant ANBL6; experiment: Synergistic apoptosis activity in human bortezomib-resistant ANBL6 cells assessed as early apoptosis at 1600 nM incubated for 24 hrs in the presence of BTZ by annexin V and 7-AAD staining by flow cytometry analysis; type: functional
[32] = system: Bortezomib-resistant ANBL6; experiment: Induction of apoptosis in human bortezomib-resistant ANBL6 cells assessed as viable at 1600 nM incubated for 72 hrs by annexin V and 7-AAD staining by flow cytometry analysis (Rvb=80 %); type: functional

For `Cc1sc2c(c1C)C(c1ccc(Cl)cc1)=N[C@@H](CC(N)=O)c1nnc(C)n1-2`, the inhibition [1] was “Active”, the CI (ANBL-6 [2]) was 0.85 and the inhibition [3] was “Active”. It also gave a CI (RPMI-8226 [4]) of 1.367, an Activity [5] of 4% and a CI [6] of 0.693. For the same compound, the CI [7] was 0.494, the Activity (ANBL-6 [8]) was 84% and the CI (ANBL-6 [9]) was 0.793. It also gave a CI [10] of 0.77, an Activity [11] of 18% and a CI [12] of 0.355. The Activity (ANBL-6 [13]) was 59%, the CI (ANBL-6 [14]) was 0.614 and the inhibition [15] was “Dose-Dependent Effect”. The inhibition [16] was “inactive”, the CI (ANBL-6 [17]) was 0.692 and the Activity [18] was 10%. For the same compound, the inhibition [19] was “Active”, the Activity (ANBL-6 [20]) was 31% and the Activity [21] was 16%. The CI [22] was 0.87, the CI [23] was 0.925 and the Activity (ANBL-6 [24]) was 28%. It also gave a CI (RPMI-8226 [25]) of 1.041, an Activity (ANBL-6 [26]) of 6% and an Activity (ANBL-6 [27]) of 10%. For the same compound, the Activity [28] was 23%, the Activity (ANBL-6 [29]) was 12% and the CI (ANBL-6 [30]) was 0.44. The CI [31] was 0.99 and the Activity [32] was 54%.
